# Results: patent publication US20250250268A1 (SHANGHAI HAOYUAN MEDCHEMEXPRESS CO., LTD., priority 2022, published 2025)
# “Also recorded” adds a separate entry of the source.
# Tests used:
# [1] = Stability tests of crystal forms under accelerated and low-temperature storage (XRPD, HPLC); format: physicochemical; settings: for Polymorphic changes on storage (XRPD): accelerated test conditions (40° C., 75% RH) and low-temperature storage conditions (−20° C.)
# [2] = Drying transformation relationship of Form A-F (vacuum drying, XRPD); settings: for Description / XRPD results: 60-80° C. vacuum drying; for Stability / conversion of crystal form on drying: dried at high temperatures, solvent removed
# [3] = tested on: microglia; assay: Pharmacological animal experiment: microglia clearance in mice fed PLX5622 crystal forms (IBA1 staining, Image j counting); format: in vivo, C57BL/6J mice; settings: for 7-day clearance rate / 14-day clearance rate / 7-day number of cells / 14-day number of cells: C57BL/6J mice, in AIN-76A food; for 7-day clearance rate / 14-day clearance rate: administration every other day, average clearance rate of microglia; for 7-day clearance rate / 7-day number of cells: 7 days; for 14-day clearance rate / 14-day number of cells: 14 days; for 7-day number of cells / 14-day number of cells: average statistical number of microglia (total number in brains); for Microglia clearance rate compared with Form A: 7-day or 14-day clearance rate, mice
# Method: Mice were adaptively fed for 3-6 days upon arrival in the mouse room, with AIN-76A food. Group A was administered PLX5622 compound Form A, and Group B was administered PLX5622 compound Form B.
# Formal administration: Administration was conducted every other day, on days 1, 3, 5, 7, 9, 11, and 13. Each time of administration required weighing, and the amount was adjusted to 4 g per mouse (actual consumption around 3 g per mouse).
# After anesthesia, mice were immobilized using tape or needles/pins, and the fur on the lateral thorax was lifted with forceps. The skin was then cut with scissors to expose the white sternum. The diaphragm was carefully incised with fine scissors, taking care not to damage the above heart.
# A small incision was made on the right atrium. The heart was fixed with forceps, and an injection needle was inserted into the left ventricle from the apex of the heart at an angle roughly parallel to the left-right midline of the heart.
# Sucrose gradient dehydration: The mouse brains were fixed in 4% paraformaldehyde overnight and then dehydrated with 20% sucrose solution until the material sank to the bottom, followed by dehydration with 30% sucrose solution until the material sank to the bottom. Embedding and sectioning: get 25-40 μm sections, which are the tissues that need to be stained.
# • 1. After washing the sections, blocking was initiated with 5% BSA in PBST for 2 hours. • 2. Incubation with the primary antibody, IBA1 (1:500) in 1% BSA in PBST, at 4° C. for at least 14 hours. • 3. Incubation with Alexa Fluor-conjugated secondary antibody (1:500) in 1% BSA in PBST, at room temperature for 2 hours. • 4. Washed with PBS 3-5 times for 10 minutes each, stained with DAPI, followed by addition of anti-fade reagent, dried overnight, and then photographed and scanned for analysis.
# Image j counting: All microglia with complete morphology need to be counted.
# Among them, the mice are all 3-month-old male mice; the clearance rates are the average clearance rate and the average statistical number of microglia (total number in brains).
# [4] = Pharmacokinetic determination in rats (feed administration, plasma and brain); format: in vivo; settings: 1200 ppm in AIN-76A standard feed, 7-day and 14-day groups, Cmax and AUC
# Source text: Plasma or brain samples from the 2 groups were collected for pharmacokinetic (PK) parameter analysis. For the 7-day group, plasma samples were collected on day 1, day 3, and day 7; after the rats were euthanized on day 7, brain tissue samples were collected. For the […], plasma samples were collected from rats on day 10 and 14; on day 14, the mice were euthanized, and brain tissue samples were collected.
# For the processing of plasma samples, rats were anesthetized on days 1, 3, 7 and 10 and 14, and approximately 150 μL of blood was collected via cardiac puncture into anticoagulant centrifuge tubes containing K 2 EDTA. Within 15 minutes of sampling, plasma was obtained by centrifugation at 2000 g for 5 minutes at 4° C. and stored at below −60° C. until analysis. For the processing of brain tissue samples, the rats were euthanized on day 7 and 14, and then the brain tissue was collected. The residual blood on the surface of the tissue was washed away with normal saline, dried with filter paper, weighed, and frozen in dry ice, then store in a refrigerator below −60° C. until sample analysis. Pharmacokinetic (PK) parameters Cmax and AUC were calculated based on a non-compartmental model using WinNonlin 8.2 software. Drug concentrations in mouse plasma and brain tissue were determined.
SMILES,"Purity (by HPLC %) ([1]; 40° C./75% RH, 5 Days) [%]","XRPD ([1]; 40° C./75% RH, 5 Days)","Purity (by HPLC %) ([1]; 40° C./75% RH, 10 Days) [%]","XRPD ([1]; 40° C./75% RH, 10 Days)","Purity (by HPLC %) ([1]; Initial, 0 Day) [%]","XRPD ([1]; Initial, 0 Day)",Polymorphic changes on storage (XRPD) [1],"Purity (by HPLC %) ([1]; −20° C., 10 months) [%]","XRPD ([1]; −20° C., 10 months)",Stability / conversion of crystal form on drying [2],7-day clearance rate [3] [%],14-day clearance rate [3] [%],7-day number of cells [3],14-day number of cells [3],Description ([2]; 24 hours),XRPD results ([2]; 24 hours),also measured
"COc1ncc(F)cc1CNc1ccc(Cc2c[nH]c3ncc(C)cc23)c(F)n1 [Form A, 6-Fluoro-N-((5-fluoro-2-methoxypyridin-3-yl)methyl)-5-((5-methyl-1H-pyrrolo[2,3-b]pyridin-3-yl)methyl) pyridin-2-amine]",99.90,Form A,99.90,Form A,99.90,Form A,did not undergo any polymorphic changes,99.90,Form A,remain stable,72.6,75.1,(1337),(922),–,–,"Individual Impurity (RRT/%) RRT = 0.33 ([1]; 40° C./75% RH, 5 Days): 0.06%; Individual Impurity (RRT/%) RRT = 1.50 ([1]; 40° C./75% RH, 5 Days): 0.04%; Individual Impurity (RRT/%) RRT = 0.33 ([1]; 40° C./75% RH, 10 Days): 0.06%; Individual Impurity (RRT/%) RRT = 1.50 ([1]; 40° C./75% RH, 10 Days): 0.04%; Individual Impurity (RRT/%) RRT = 0.33 ([1]; Initial, 0 Day): 0.06%; Individual Impurity (RRT/%) RRT = 1.50 ([1]; Initial, 0 Day): 0.04%; Individual Impurity (RRT/%) RRT = 0.33 ([1]; −20° C., 10 months): 0.06%; Individual Impurity (RRT/%) RRT = 1.50 ([1]; −20° C., 10 months): 0.04%; Description ([2]; 2 days): White to off-white; XRPD results ([2]; 2 days): Form A"
"COc1ncc(F)cc1CNc1ccc(Cc2c[nH]c3ncc(C)cc23)c(F)n1 [Form B, 6-Fluoro-N-((5-fluoro-2-methoxypyridin-3-yl)methyl)-5-((5-methyl-1H-pyrrolo[2,3-b]pyridin-3-yl)methyl) pyridin-2-amine]",99.92,Form B,99.92,Form B,99.92,Form B,did not undergo any polymorphic changes,99.92,Form B,remain stable,87,90,(482),(377),–,–,"Individual Impurity (RRT/%) RRT = 1.04 ([1]; 40° C./75% RH, 5 Days): 0.05%; Individual Impurity (RRT/%) RRT = 1.29 ([1]; 40° C./75% RH, 5 Days): 0.03%; Individual Impurity (RRT/%) RRT = 1.04 ([1]; 40° C./75% RH, 10 Days): 0.05%; Individual Impurity (RRT/%) RRT = 1.29 ([1]; 40° C./75% RH, 10 Days): 0.03%; Individual Impurity (RRT/%) RRT = 1.04 ([1]; Initial, 0 Day): 0.05%; Individual Impurity (RRT/%) RRT = 1.29 ([1]; Initial, 0 Day): 0.03%; Individual Impurity (RRT/%) RRT = 1.04 ([1]; −20° C., 10 months): 0.05%; Individual Impurity (RRT/%) RRT = 1.29 ([1]; −20° C., 10 months): 0.03%; Description ([2]; 3 days): White to off-white; XRPD results ([2]; 3 days): Form B; Microglia clearance rate compared with Form A [3]: better than Form A; Microglia clearance rate compared with Form A ([3]; listed as crystal form B): better clearance rate of microglia cells at 7 or 14 days compared to crystal form A; also recorded: higher rate of microglia cell clearance at 7 days or 14 days; Pharmacokinetic performance [4]: better pharmacokinetic performance"
"COc1ncc(F)cc1CNc1ccc(Cc2c[nH]c3ncc(C)cc23)c(F)n1 [Form D, 6-Fluoro-N-((5-fluoro-2-methoxypyridin-3-yl)methyl)-5-((5-methyl-1H-pyrrolo[2,3-b]pyridin-3-yl)methyl) pyridin-2-amine]",–,–,–,–,–,–,–,–,–,converting it to Form A,–,–,–,–,White to off-white,Form A,–
"COc1ncc(F)cc1CNc1ccc(Cc2c[nH]c3ncc(C)cc23)c(F)n1 [Form F, 6-Fluoro-N-((5-fluoro-2-methoxypyridin-3-yl)methyl)-5-((5-methyl-1H-pyrrolo[2,3-b]pyridin-3-yl)methyl) pyridin-2-amine]",–,–,–,–,–,–,–,–,–,–,–,–,–,–,White to off-white,Form A + B,–
"COc1ncc(F)cc1CNc1ccc(Cc2c[nH]c3ncc(C)cc23)c(F)n1 [Form E, 6-Fluoro-N-((5-fluoro-2-methoxypyridin-3-yl)methyl)-5-((5-methyl-1H-pyrrolo[2,3-b]pyridin-3-yl)methyl) pyridin-2-amine]",–,–,–,–,–,–,–,–,–,–,–,–,–,–,White to off-white,Form A + B,–
"COc1ncc(F)cc1CNc1ccc(Cc2c[nH]c3ncc(C)cc23)c(F)n1 [Form C, 6-Fluoro-N-((5-fluoro-2-methoxypyridin-3-yl)methyl)-5-((5-methyl-1H-pyrrolo[2,3-b]pyridin-3-yl)methyl) pyridin-2-amine]",–,–,–,–,–,–,–,–,–,converted to Form A,–,–,–,–,White to off-white,Form A,–
